Experimental data: patent US3981982A, “Radioimmunoassay for determining the digoxin content of a sample” (Abbott Laboratories, priority 1974, dated 1976)
Values joined by “and” are separate entries in the source; they are usually repeats but may differ in a detail not shown here. Equal values may be shown once.

What was measured:
digoxin antibody [1] = experiment: Reproducibility of percent bound, two technicians (Table II); format: binding, rabbits
Description: (§1) The tubes are shaken to mix the reagents therein.
Table II illustrates the accuracy, precision and reproducibilty of the method of the present invention.
Replicates of 2 Panel Samples were assayed by two technicians in the
laboratory. Fifteen replicate samples were used.

digoxin antibody [2] = experiment: Competitive radioimmunoassay with I^125 digoxin tyramine analog, polyethylene glycol separation: percent bound (Table I); format: binding, rabbits; settings: for Percent Bound: single tube
Text: Described is a competitive radioimmunoassay in which non-radioactive digoxin in a serum sample competes with a constant amount of I^125 digoxin tyramine analog for binding cites on a limited amount of digoxin antibody. The percentage or portion of the radioactivity labeled digoxin which is bound to the antibody is inversely proportional to the concentration of digoxin in the serum sample. The antibody bound digoxin, both radioactive and non-radioactive is separated from unbound digoxin and the radioactivity of the complex is measured with a well-type gamma scintillation counter. The concentration of digoxin in the serum is determined by comparison with standards containing measured amounts of unlabeled digoxin. The use of I^125 digoxin tyramine analog simplifies the procedure, obviating the need for liquid scintillation counting fluid which must be used with ^3 H-digoxin.
In the radioimmunoassay of the present invention, the use of polyethylene glycol is preferred to separate the bound, labeled digoxin tyramine analog from the free digoxin although ethanol or ammonium sulfate can be used. After incubation of the antigen and antibody, a predetermined amount of polyethylene glycol is added and the mixture is agitated. Subsequently, the antibody-bound digoxin is precipitated and separated by centrifugation. The radioactivity remaining in the precipitate is measured to determine the amount of I^125 digoxin tyramine analog which is bound to the antibody. This amount will be inversely proportional with the quantity of nonlabeled antigen present in the serum sample.
The radioimmunoassay of the present invention measures digoxin in the serum sample. The digoxin in a serum sample competes with a constant amount of a radioactively labeled digoxin tyramine analog for binding cites on a limited amount of digoxin antibody. The digoxin tyramine analog comprises 3-0-(4-Hydroxyphenethylcarbamoyl) digoxigenin prepared as hereinafter described. The digoxin tyramine analog is labeled with a radioactive isotope, employing conventional procedures. Iodine-I^125 is preferred as the labeling agent because of its advantageous half life but other radionuclides such as iodine^131, phosphorus^32 and tritium can also be used to radioactively label the reagent. The use of this tracer simplifies the procedure, obviating the need for liquid scintillation counting fluid which must be used with prior tracers such as ^3 H-digoxin.
1. I^125 -digoxin tyramine analog solution in an alcohol-phosphate saline buffer and having a radioactivity level of approximately 1 microcurie per vial.
2. Digoxin standards for preparation of a standard curve and comprising five vials containing 0.0, 0.5, 1.0, 2.0 and 4.0 nanograms per milliliter digoxin in normal human serum. 0.2% sodium azide is used as a preservative.
3. Digoxin antiserum obtained from rabbits in phosphate-saline buffer containing 0.1% […] serum albumin. 0.2% sodium azide is used as a preservative.
4. Polyethylene glycol, 18% solution in 0.09M barbital buffer.
The test procedure is conducted as follows.
b. Tubes 3 through 12 containing known amounts of digoxin are used to prepare the standard curve. Tubes 3 and 4, 0.0 nanograms per milliliter digoxin. Tubes 5 and 6, 0.5 nanograms per milliliter digoxin. Tubes 7 and 8, 1.0 nanograms per milliliter digoxin. Tubes 9 and 10, 2.0 nanograms per milliliter digoxin. Tubes 11 and 12, 4.0 nanograms per milliliter digoxin.
as §1
The points are connected with straight lines to construct the curve.

[3] = digoxin level; suggested by H. M. Part et al., J. of NUCL. Med. 1973; cited from earlier work
[4] = usually; background statement; cited from earlier work

## C[C@]12CC[C@H](OC(=O)NCCc3ccc(O)c([125I])c3)C[C@H]1CC[C@@H]1[C@@H]2C[C@@H](O)[C@]2(C)[C@@H](C3=CC(=O)OC3)CC[C@]12O [I^125 digoxin tyramine analog]
Digoxin antibody [1]; Panel Sample 1, Technician I, fifteen replicates
  % Bound: 44.1%
Digoxin antibody [1]; Panel Sample 1, Technician II, fifteen replicates
  % Bound: 43.6%
Digoxin antibody [1]; Panel Sample 2, Technician I, only 14 replicates
  % Bound: 21.5%
Digoxin antibody [1]; Panel Sample 2, Technician II, fifteen replicates
  % Bound: 20.1%
Digoxin antibody [2]; digoxin standard 0.0 ng/ml, mean of duplicate tubes 3, 4
  Average % Bound: 59.7%
Digoxin antibody [2]; digoxin standard 0.0 ng/ml
  Percent Bound: 59.2% and 60.2%
Digoxin antibody [2]; digoxin standard 0.5 ng/ml, mean of duplicate tubes 5, 6
  Average % Bound: 52.9%
Digoxin antibody [2]; digoxin standard 0.5 ng/ml
  Percent Bound: 53.8% and 52.1%
Digoxin antibody [2]; digoxin standard 1.0 ng/ml, mean of duplicate tubes 7, 8
  Average % Bound: 41.5%
Digoxin antibody [2]; digoxin standard 1.0 ng/ml
  Percent Bound: 41.5%
Digoxin antibody [2]; digoxin standard 2.0 ng/ml, mean of duplicate tubes 9, 10
  Average % Bound: 22.9%
Digoxin antibody [2]; digoxin standard 2.0 ng/ml
  Percent Bound: 22.5% and 23.4%
Digoxin antibody [2]; digoxin standard 4.0 ng/ml, mean of duplicate tubes 11, 12
  Average % Bound: 12.9%
Digoxin antibody [2]; digoxin standard 4.0 ng/ml
  Percent Bound: 12.8% and 12.9%
Digoxin antibody [2]; unknown serum sample No. 14, mean of duplicates
  Average % Bound: 17.7%
Digoxin antibody [2]; unknown serum sample No. 14
  Percent Bound: 17.5% and 17.9%
Digoxin antibody [2]; unknown serum sample No. 15, mean of duplicates
  Average % Bound: 64.1%
Digoxin antibody [2]; unknown serum sample No. 15
  Percent Bound: 63.3% and 65.0%
Digoxin antibody [2]; unknown serum sample No. 16, mean of duplicates
  Average % Bound: 25.3%
Digoxin antibody [2]; unknown serum sample No. 16
  Percent Bound: 25.1% and 25.5%
Digoxin antibody [2]; unknown serum sample No. 17, mean of duplicates
  Average % Bound: 49.6%
Digoxin antibody [2]; unknown serum sample No. 17
  Percent Bound: 50.8% and 48.5%
Digoxin antibody [2]; unknown serum sample No. 18, mean of duplicates
  Average % Bound: 24.4%
Digoxin antibody [2]; unknown serum sample No. 18
  Percent Bound: 24.5% and 24.3%

## C[C@H]1O[C@@H](O[C@H]2[C@@H](O)C[C@H](O[C@H]3[C@@H](O)C[C@H](O[C@H]4CC[C@@]5(C)[C@H](CC[C@@H]6[C@@H]5C[C@@H](O)[C@]5(C)[C@@H](C7=CC(=O)OC7)CC[C@]65O)C4)O[C@@H]3C)O[C@@H]2C)C[C@H](O)[C@@H]1O [digoxin]
[3]
  approximate toxic threshold: ~2 ng/mL
[4]
  amounts of digoxin in serum: less than five
